Results published in PubChem BioAssay (NCI).
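Protocol summary: plate cells (96-well), add compound at 5 concentrations, incubate 48 h, interpolate endpoints linearly. GI50 = concentration required for 50% inhibition of growth. The concentration for full growth arrest is given as TGI.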

How the values were obtained:
Test in all cases: NCI-60 cell line screen, 48 h
NCI-H23 lung = test system: NCI-H23 lung
NCI-H460 lung = test system: NCI-H460 lung
NCI-H522 lung = test system: NCI-H522 lung
NCI/ADR-RES ovarian = test system: NCI/ADR-RES ovarian
OVCAR-3 ovarian = test system: OVCAR-3 ovarian
OVCAR-4 ovarian = test system: OVCAR-4 ovarian
OVCAR-5 ovarian = test system: OVCAR-5 ovarian
OVCAR-8 ovarian = test system: OVCAR-8 ovarian
PC-3 prostate = test system: PC-3 prostate
RPMI-8226 leukemia = test system: RPMI-8226 leukemia
RXF 393 renal = test system: RXF 393 renal
SF-268 CNS = test system: SF-268 CNS
SF-295 CNS = test system: SF-295 CNS
SF-539 CNS = test system: SF-539 CNS
SK-MEL-2 melanoma = test system: SK-MEL-2 melanoma
SK-MEL-28 melanoma = test system: SK-MEL-28 melanoma
SK-MEL-5 melanoma = test system: SK-MEL-5 melanoma
SK-OV-3 ovarian = test system: SK-OV-3 ovarian
SN12C renal = test system: SN12C renal
SNB-19 CNS = test system: SNB-19 CNS
SNB-75 CNS = test system: SNB-75 CNS
SR leukemia = test system: SR leukemia
SW-620 colon = test system: SW-620 colon
T-47D breast = test system: T-47D breast
TK-10 renal = test system: TK-10 renal
U251 CNS = test system: U251 CNS
UACC-257 melanoma = test system: UACC-257 melanoma
UACC-62 melanoma = test system: UACC-62 melanoma
UO-31 renal = test system: UO-31 renal

CCN(CC)CCOc1ccc(/C=C2\CC3C4CC=C5C[C@@H](N6CCCC6)CC[C@]5(C)C4CC[C@]3(C)[C@H]2OC(C)=O)cc1OC (stereo partly specified)
GI50 (NCI-H23 lung): 1630 nM
TGI (NCI-H23 lung): 3320 nM
GI50 (NCI-H460 lung): 1600 nM
TGI (NCI-H460 lung): 4460 nM
GI50 (NCI-H522 lung): 2350 nM
GI50 (NCI/ADR-RES ovarian): 570 nM
TGI (NCI/ADR-RES ovarian): 1930 nM
GI50 (OVCAR-3 ovarian): 773 nM
TGI (OVCAR-3 ovarian): 1840 nM
GI50 (OVCAR-4 ovarian): 2140 nM
TGI (OVCAR-4 ovarian): 5650 nM
GI50 (OVCAR-5 ovarian): 1390 nM
TGI (OVCAR-5 ovarian): 3060 nM
GI50 (OVCAR-8 ovarian): 1070 nM
TGI (OVCAR-8 ovarian): 3470 nM
GI50 (PC-3 prostate): 1130 nM
TGI (PC-3 prostate): 2510 nM
GI50 (RPMI-8226 leukemia): 124 nM
TGI (RPMI-8226 leukemia): 5240 nM
GI50 (RXF 393 renal): 815 nM
TGI (RXF 393 renal): 2770 nM
GI50 (SF-268 CNS): 1860 nM
TGI (SF-268 CNS): 4560 nM
GI50 (SF-295 CNS): 1550 nM
TGI (SF-295 CNS): 2950 nM
GI50 (SF-539 CNS): 597 nM
TGI (SF-539 CNS): 1200 nM
GI50 (SK-MEL-2 melanoma): 3450 nM
TGI (SK-MEL-2 melanoma): > 100000 nM
GI50 (SK-MEL-28 melanoma): 1710 nM
TGI (SK-MEL-28 melanoma): 3560 nM
GI50 (SK-MEL-5 melanoma): 720 nM
TGI (SK-MEL-5 melanoma): 1390 nM
GI50 (SK-OV-3 ovarian): 2400 nM
TGI (SK-OV-3 ovarian): 6060 nM
GI50 (SN12C renal): 1190 nM
TGI (SN12C renal): 2640 nM
GI50 (SNB-19 CNS): 698 nM
TGI (SNB-19 CNS): 3470 nM
GI50 (SNB-75 CNS): 2210 nM
TGI (SNB-75 CNS): 5100 nM
GI50 (SR leukemia): 191 nM
TGI (SR leukemia): 444 nM
GI50 (SW-620 colon): 555 nM
TGI (SW-620 colon): 1920 nM
GI50 (T-47D breast): 1030 nM
TGI (T-47D breast): 2210 nM
GI50 (TK-10 renal): 1240 nM
TGI (TK-10 renal): 2670 nM
GI50 (U251 CNS): 1180 nM
TGI (U251 CNS): 2440 nM
GI50 (UACC-257 melanoma): 1910 nM
TGI (UACC-257 melanoma): 3920 nM
GI50 (UACC-62 melanoma): 715 nM
TGI (UACC-62 melanoma): 1410 nM
GI50 (UO-31 renal): 2280 nM
